Reference: US20240261447A1, “COMPOSITIONS AND METHODS FOR TREATING CONDITIONS RELATED TO THE HEPATO[…]” (THE REGENTS OF THE UNIVERSITY OF MICHIGAN, priority 2021, published 2024)

Tested on: Sphincter of Oddi
Settings: co-administered with Fe-PSMPs via oral gavage; pancreatic tumor-bearing mice
Description: Female C57BL/6 mice 6-8 weeks of age (Jackson Laboratories) were orthotopically inoculated in pancreas with KPC-Luc cells (1.5×10^4). […] During the biodistribution studies, ^68Ga-PSMPs, Fe-PSMPs or Nano-Calcium were administered in mice via oral gavage. Mice were euthanized 2 hours after oral gavage. The pancreas and other major organs were collected and wet-weighted and the radioactivity in the organs were measured by a gamma counter (Wizard 2 1-Detector, PerkinElmer).

SMILES: O=[N+]([O-])OCC(CO[N+](=O)[O-])O[N+](=O)[O-] [nitroglycerin]
- increase in the accumulation of Fe-PSMPs in the pancreas: 10 fold
